target: bovine cerebral TPK1 (Bos taurus, UniProt A0A059UE90); test: Inhibitory activity against P-GS1 phosphorylation by bovine cerebral TPK1; format: biochemical; conditions: P-GS1 phosphorylation, 41.7 μM [γ-32P] ATP, 25° C., 2 hours; read-out: IC50
Method: Inhibitory Activity of the Medicament of the Present Invention Against P-GS1 Phosphorylation by Bovine Cerebral TPK1 […] The phosphorylation was started by adding ATP, and the reaction was conducted at 25° C. for 2 hours, and then stopped by adding 21% perchloric acid on ice cooling. The reaction mixture was centrifuged at 12,000 rpm for 5 minutes and adsorbed on P81 paper (Whatmann), and then the paper was washed four times with 75 mM phosphoric acid, three times with water and once with acetone. The paper was dried, and the residual radioactivity was measured using a liquid scintillation counter.

Chain of bovine cerebral TPK1 (A0A059UE90 1-419): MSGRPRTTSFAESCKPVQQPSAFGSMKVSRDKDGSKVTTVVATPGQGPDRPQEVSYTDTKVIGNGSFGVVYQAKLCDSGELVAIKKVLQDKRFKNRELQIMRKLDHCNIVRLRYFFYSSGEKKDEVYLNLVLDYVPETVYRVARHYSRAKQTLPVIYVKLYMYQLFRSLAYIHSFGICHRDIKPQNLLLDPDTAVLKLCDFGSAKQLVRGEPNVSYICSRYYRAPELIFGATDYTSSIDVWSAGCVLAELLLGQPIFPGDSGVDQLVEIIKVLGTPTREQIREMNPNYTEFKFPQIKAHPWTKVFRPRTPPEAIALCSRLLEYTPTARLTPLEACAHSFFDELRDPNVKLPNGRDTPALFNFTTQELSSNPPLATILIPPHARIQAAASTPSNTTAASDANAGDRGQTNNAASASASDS

IC50 [µM] | SMILES
0.0094 | Cn1c(OC2CCN(c3cccc(CN4CCCCC4)c3)CC2)nc(-c2ccncn2)cc1=O [1.223, 1-Methyl-2-[1-(3-piperidin-1-ylmethyl-phenyl)piperidin-4-yloxy]-1H-[4,4′]bipyrimidinyl-6-one]
0.0298 | Cn1c(OC2CCN(c3cccnc3)CC2)nc(-c2ccncn2)cc1=O [1.224, 1-Methyl-2-(1-pyridin-3-yl-piperidin-4-yloxy)-1H-[4,4′]bipyrimidinyl-6-one]
0.0094 | Cn1c(OC2CCN(c3ccc4c(c3)CNC4)CC2)nc(-c2ccncn2)cc1=O [1.225, 2-[1-(2,3-Dihydro-1H-isoindol-5-yl)piperidin-4-yloxy]-1-methyl-1H-[4,4′]bipyrimidinyl-6-one]
0.0237 | CN1Cc2ccc(N3CCC(Oc4nc(-c5ccncn5)cc(=O)n4C)CC3)cc2C1 [1.226, 1-Methyl-2-[1-(2-methyl-2,3-dihydro-1H-isoindol-5-yl)piperidin-4-yloxy]-1H-[4,4′]bipyrimidinyl-6-one]
0.016 | Cn1c(OC2CCN(c3ccc4c(c3)CN(Cc3ccccc3)C4)CC2)nc(-c2ccncn2)cc1=O [1.227, 2-[1-(2-Benzyl-2,3-dihydro-1H-isoindol-5-yl)piperidin-4-yloxy]-1-methyl-1H-[4,4′]bipyrimidinyl-6-one]
0.555 | Cn1c(OC2CCN(c3ccc([N+](=O)[O-])s3)CC2)nc(-c2ccncn2)cc1=O [1.228, 1-Methyl-2-[1-(5-nitro-thiophen-2-yl)piperidin-4-yloxy]-1H-[4,4′] bipyrimidinyl-6-one]
0.216 | Cn1c(OC2CCN(c3cncnc3)CC2)nc(-c2ccncc2F)cc1=O [1.229, 6-(3-Fluoro-pyridin-4-yl)-3-methyl-2-(1-pyrimidin-5-yl-piperidin-4-yloxy)-3H-pyrimidin-4-one]
0.154 | CC(=O)N1Cc2ccc(N3CCC(Oc4nc(-c5ccncn5)cc(=O)n4C)CC3)cc2C1 [1.230, 2-[1-(2-Acetyl-2,3-dihydro-1H-isoindol-5-yl)piperidin-4-yloxy]-1-methyl-1H-[4,4′]bipyrimidinyl-6-one]
0.0128 | Cn1c(OC2CCN(c3ccc(CN4CCCCC4)cc3)C2)nc(-c2ccncn2)cc1=O (stereo not shown) [1.231, 1-Methyl-2-[1-(4-piperidin-1-ylmethyl-phenyl)pyrrolidin-3-yloxy]-1H-[4,4′]bipyrimidinyl-6-one]
0.162 | Cn1c(OCC2CCN(c3ccc(CN4CCCCC4)cc3)CC2)nc(-c2ccncc2)cc1=O [1.232, 3-Methyl-2-[1-(4-piperidin-1-ylmethyl-phenyl)piperidin-4-ylmethoxy]-6-pyridin-4-yl-3H-pyrimidin-4-one]
0.0416 | Cn1c(OCC2CCN(c3ccc(CN4CCCCC4)cc3)CC2)nc(-c2ccncn2)cc1=O [1.233, 1-Methyl-2-[1-(4-piperidin-1-ylmethyl-phenyl)piperidin-4-ylmethoxy]-1H-[4,4′] bipyrimidinyl-6-one]
0.0156 | Cn1c(OCC2CCN(c3ccc(CN4CCCCC4)cc3)CC2)nc(-c2ccncc2F)cc1=O [1.234, 6-(3-Fluoro-pyridin-4-yl)-3-methyl-2-[1-(4-piperidin-1-ylmethyl-phenyl)piperidin-4-ylmethoxy]-3H-pyrimidin-4-one]
0.0149 | CN1CCN(Cc2ccccc2N2CCC(Oc3nc(-c4ccncn4)cc(=O)n3C)CC2)CC1 [1.302, 1-Methyl-2-{1-[2-(4-methyl-piperazin-1-ylmethyl)phenyl]piperidin-4-yloxy}-1H-[4,4′]bipyrimidinyl-6-one]
0.0512 | Cn1c(OC2CCN(c3ccccc3CN3CCCCC3)CC2)nc(-c2ccncn2)cc1=O [1.303, 1-Methyl-2-[1-(2-piperidin-1-ylmethyl-phenyl)piperidin-4-yloxy]-1H-[4,4′]bipyrimidinyl-6-one]
0.0252 | Cn1c(OC2CCN(c3ccccc3CN3Cc4ccccc4C3)CC2)nc(-c2ccncn2)cc1=O [1.304, 2-{1-[2-(1,3-Dihydro-isoindol-2-ylmethyl)phenyl]piperidin-4-yloxy}-1-methyl-1H-[4,4′] bipyrimidinyl-6-one]
0.0586 | CN(C)Cc1ccccc1N1CCC(Oc2nc(-c3ccncn3)cc(=O)n2C)CC1 [1.305, 2-[1-(2-Dimethylaminomethyl-phenyl)piperidin-4-yloxy]-1-methyl-1H-[4,4′]bipyrimidinyl-6-one]

IC50 [µM] | SMILES
0.149 | CN1CCC(CCN2CCC(Oc3nc(-c4ccncn4)cc(=O)n3C)CC2)CC1 [1.503, 1-Methyl-2-{1-[2-(1-methyl-piperidin-4-yl)ethyl]piperidin-4-yloxy)-1H-[4,4′]bipyrimidinyl-6-one]
0.955 | Cn1c(OC2CCN(Cc3ccccc3)CC2)nc(-c2ccncn2)cc1=O [1.504, 2-(1-Benzyl-piperidin-4-yloxy)-1-methyl-1H-[4,4′]bipyrimidinyl-6-one]
0.395 | CN1CCC(N2CCC(Oc3nc(-c4ccncn4)cc(=O)n3C)CC2)CC1 [1.505, 1-Methyl-2-(1′-methyl-[1,4′]bipiperidinyl-4-yloxy)-1H-[4,4′] bipyrimidinyl-6-one]
0.0226 | Cn1c(OC2CCCCC2)nc(-c2ccncn2)cc1=O [1.802, 2-Cyclohexyloxy-1-methyl-1H-[4,4′]bipyrimidinyl-6-one]
0.948 | CCC1CCCCC1Oc1nc(-c2ccncn2)cc(=O)n1C (stereo not shown) [1.803, 2-(2-Ethyl-cyclohexyloxy)-1-methyl-1H-[4,4′]bipyrimidinyl-6-one]
0.1 | Cn1c(OC2CCCC2)nc(-c2ccncn2)cc1=O [1.804, 2-Cyclopentyloxy-1-methyl-1H-[4,4′]bipyrimidinyl-6-one]
0.37 | Cn1c(OCCOc2ccccc2)nc(-c2ccncc2)cc1=O [1.805, 3-Methyl-2-(2-phenoxy-ethoxy)-6-pyridin-4-yl-3H-pyrimidin-4-one]
0.055 | Cn1c(OCCSc2ccccc2)nc(-c2ccncc2)cc1=O [1.806, 3-Methyl-2-(2-phenylsulfanyl-ethoxy)-6-pyridin-4-yl-3H-pyrimidin-4-one]
0.099 | Cn1c(OCCNc2ccccc2)nc(-c2ccncc2)cc1=O [1.807, 3-Methyl-2-(2-phenylamino-ethoxy)-6-pyridin-4-yl-3H-pyrimidin-4-one]
0.067 | CCN(CCOc1nc(-c2ccncc2F)cc(=O)n1C)c1cccc(C)c1 [1.808, 2-[2-(Ethyl-m-tolyl-amino)-ethoxy]-6-(3-fluoro-pyridin-4-yl)-3-methyl-3H-pyrimidin-4-one]
0.431 | CCN(CCOc1nc(-c2ccncn2)cc(=O)n1C)c1cccc(C)c1 [1.809, 2-[2-(Ethyl-m-tolyl-amino)-ethoxy]-1-methyl-1H-[4,4′] bipyrimidinyl-6-one]
0.201 | Cn1c(OCCCc2cccnc2)nc(-c2ccncn2)cc1=O [1.810, 1-Methyl-2-(3-pyridin-3-yl-propoxy)-1H-[4,4′]bipyrimidinyl-6-one]
0.2 | Cn1c(OCCc2ccccc2)nc(-c2ccncc2)cc1=O [2.002, 3-Methyl-2-phenethyloxy-6-pyridin-4-yl-3H-pyrimidin-4-one]
0.26 | CCCCCCOc1nc(-c2ccncc2)cc(=O)n1C [2.003, 2-Hexyloxy-3-methyl-6-pyridin-4-yl-3H-pyrimidin-4-one]
0.158 | Cn1c(OC[C@H]2CCCN2c2ccc(F)cc2)nc(-c2ccncn2)cc1=O [2.202, 2-[(2R)-1-(4-Fluoro-phenyl)pyrrolidin-2-ylmethoxy]-1-methyl-1H-[4,4′]bipyrimidinyl-6-one]
